Experimental data published in patent publication US20250025445A1, “METHOD OF CARDIOPROTECTION” (Race Oncology LTD., priority 2021, published 2025).
Read-outs that look alike come from different tables or passages of the source.

What was measured:
[1] = cited from earlier work
MCF7 breast cancer cells = experiment: MCF7 breast cancer cell viability (CellTiter-Glo); assay type: cell-based, human; conditions: FTO inhibitor up to 10 μM with 1 μM doxorubicin; up to 72 hours; FIG. 13
Description: Human breast adenocarcinoma (MCF7) cells were purchased from In Vitro Technologies (Victoria, Australia) and cultured according to manufacturer's recommendations using MCF7 growth media, Low glucose Dulbecco's Modified Eagle's medium (DMEM; Sigma-Aldrich, Australia) supplemented with 10% (v/v) foetal calf serum (Sigma-Aldrich) and 1% (v/v) Penicillin-Streptomycin (Sigma-Aldrich). Briefly, 1×10^6 MCF7 were seeded and grown in Corning® T75 flasks (Sigma-Aldrich) in an incubator at 37° C. under 5% CO2 conditions. At 80-90% confluency, MCF7 were washed with Dulbecco's Phosphate Buffered Saline (Sigma-Aldrich) for 30s at room temperature and followed by incubation with Trypsin-EDTA (Sigma-Aldrich) for 5 mins at 37° C. under 5% CO2 conditions. Trypsin solution was then neutralised with 1:1 volume of MCF7 growth media. The cell suspensions were then collected into Corning® 50 mL centrifuge tubes (Sigma-Aldrich) and centrifuged at 300×g for 10 mins at room temperature. The resulting supernatants were discarded and MCF7 pellets were resuspended with 5-10 mL of pre-warmed MCF7 growth media. Total viable cells were enumerated with Invitrogen™ Countess Cell Counter (Thermo Fisher Scientific, New South Wales, Australia) and 9×10^4 live MCF7 were seeded in triplicate into Corning® 96-well white polystyrene microplate (Sigma).
(§1) Dox, Dauno and Epi, were dissolved in sterile water to make a stock concentration of 20 mM, respectively, while Tz was dissolved in sterile PBS to a stock concentration of 100 μM. […] The concentrations were as follows 0 nM, 15.62 nM, 62.5 nM, 250 nM, 500 nM, 1 μM, 5 μM, and 10 μM. […] Vehicle controls were incubated with media supplemented with either sterile water or DMSO. […] This was repeated at 48 hours and 72 hours. […] Both FB23/2 and brequinar (MedChemExpress) were dissolved in dimethyl sulfoxide (DMSO; Sigma-Aldrich) to make a stock concentration of 40 mM and 20 mM respectively.

[2] = test system: H929 multiple myeloma cells; experiment: H929 multiple myeloma cell viability (CellTiter-Glo); assay type: cell-based, human; conditions: FTO inhibitor up to 10 μM with 1 μM doxorubicin; up to 72 hours
Description: Human multiple myeloma NCI-H929 cells were cultured using RPMI-1640 growth media (Sigma-Aldrich), supplemented with 2 mM L-glutamine (Thermo Fisher Scientific), 10% (v/v) foetal calf serum (Sigma-Aldrich) and 0.05 mM 2-mercaptoethanol (Sigma-Aldrich). Briefly, 0.5×10^6 H929 were seeded and grown in Corning® T75 flasks (Sigma-Aldrich) in an incubator at 37° C. under 5% CO2 conditions. At 80-90% confluency, the cell suspension was then collected into Corning® 50 mL centrifuge tubes (Sigma-Aldrich) and centrifuged at 300×g for 10 mins at room temperature. The resulting supernatant were discarded and H929 pellet was resuspended with 5-10 mL of pre-warmed H929 growth media. Total viable cells were enumerated with Invitrogen™ Countess Cell Counter (Thermo Fisher Scientific, New South Wales, Australia) and 1×10^4 live H929 were seeded in triplicate into Corning® 96-well white polystyrene microplate (Sigma). […] The concentrations were as follows 0 nM, 15.62 nM, 62.5 nM, 250 nM, 500 nM, 1 μM, 5 μM, and 10 μM. […] Vehicle controls were incubated with media supplemented with either sterile water or DMSO. […] This was repeated at 48 hours and 72 hours. […] Both FB23/2 and brequinar (MedChemExpress) were dissolved in dimethyl sulfoxide (DMSO; […]

[3] = test system: Primary Human Cardiac Myocytes (HCMs); experiment: Primary human cardiomyocyte cell viability (CellTiter-Glo); assay type: cell-based; conditions: up to 72 hours; for mitigation of toxicity of carfilzomib towards primary HCMs: FTO inhibitor 0-10 μM with 1 μM carfilzomib; for mitigation of toxicity of doxorubicin towards primary HCMs: FTO inhibitor 0-10 μM with 1 μM doxorubicin
Description: Primary Human Cardiac Myocytes (HCMs) were purchased from PromoCell® (Heidelberg, Germany) and cultured according to manufacturer's recommendations using PromoCell® Myocyte growth media (5% [v/v] foetal calf serum, 0.5 ng/ml recombinant human epidermal growth factor, 2 ng/ml recombinant human basic fibroblast growth factor, 5 μg/ml recombinant human insulin) supplemented with 1% [v/v] Penicillin-Streptomycin [Sigma-Aldrich]). Briefly, 1×10^6 HCMs were seeded and grown in Corning® T75 flasks (Sigma-Aldrich, New South Wales, Australia) in an incubator at 37° C. under 5% CO2 conditions. At 80-90% confluency, HCMs were gently detached using the DetachKit (PromoCell®), collected into Corning® 50 mL centrifuge tubes (Sigma-Aldrich), and centrifuged at 300×g for 10 mins at room temperature. The resulting supernatant were discarded and HCM pellet was resuspended with 5-10 mL of pre-warmed Myocyte Growth Medium. Total viable cells were enumerated with Invitrogen™ Countess Cell Counter (Thermo Fisher Scientific, New South Wales, Australia) and 1×10^5 live HCMs were seeded in triplicate into Corning® 96-well white polystyrene microplate (Sigma).
as §1

[4] = doxorubicin 5 mg/kg alone
Description: (§2) In particular, well established cardiotoxicity markers, including left ventricular fractional shortening, heart E/A ratio, left ventricular diastolic function, left ventricular dilatation, cardiac output, plasma triglyceride levels, plasma creatine kinase-MB (CK-MB), plasma LDH (lactate dehydrogenase) and plasma brain natriuretic peptide (BNP) were monitored over a period of up to 42 days following the start of treatments delivered weekly, four times (and therefore final treatment on day 21).
(§3) Treatments were delivered to mice intravenously on days 0, 7, 14 and 21. Mice underwent echocardiography measurements at days 0, 21 and 42 to determine LVEF, FS, EDV, ESV, CO, E wave, A wave, E′, E/A, and E/E′, and blood samples were taken at days 0, 21 and 42 to assay for cardiac troponin I levels, BNP levels, CK, LDH levels and triglycerides.

[5] = cited from earlier work; remark: listed apart in the source
[6] = Doxorubicin cardiotoxicity in mice: blood tests; conditions: doxorubicin 5 mg/kg alone
Description: as §2, §3

[7] = i.v. weekly x4, day 21, worsening by day 42
[8] = 42 days after start of treatment

In the case of CC(C)C[C@H](NC(=O)[C@H](CCc1ccccc1)NC(=O)CN1CCOCC1)C(=O)N[C@@H](Cc1ccccc1)C(=O)N[C@@H](CC(C)C)C(=O)[C@@]1(C)CO1 [carfilzomib], the patients with cardiotoxicity [1] is given as “up to 10%”.
In the case of Cc1noc(C)c1-c1cc(Cl)c(Nc2ccccc2C(=O)NO)c(Cl)c1 [FB23/2], the “increased loss of viability of MCF7 cells cultured with doxorubicin” value (MCF7 breast cancer cells) is reported as “neither brequinar nor FB23/2, at concentrations of up to 10 μM, resulted in any increased loss of viability”, the “increased loss of viability of H929 cells cultured with doxorubicin” value [2] is reported as “neither brequinar nor FB23/2, at concentrations of up to 10 μM, resulted in any increased loss of viability” and the “mitigation of toxicity of carfilzomib towards primary HCMs” value [3] is reported as “did not mitigate the toxicity”. The “mitigation of toxicity of doxorubicin towards primary HCMs” value [3] was “did not mitigate the toxicity”.
For COc1cccc2c1C(=O)c1c(O)c3c(c(O)c1C2=O)C[C@@](O)(C(=O)CO)C[C@@H]3O[C@H]1C[C@H](N)[C@H](O)[C@H](C)O1 [doxorubicin], the “heart E/A ratio” value [4, 7] was “significant cardiotoxic effects”, the “left ventricular fractional shortening” value [4, 7] was “significant cardiotoxic effects” and the cardiac output [4, 8] was “significant cardiotoxic effects”. The “left ventricular diastolic function” value [4, 8] was “significant cardiotoxic effects”, the left ventricular dilatation [4, 8] was “significant cardiotoxic effects” and the cardiac output ([4]; day 21) was “not significantly so”. For the same compound, the “left ventricular diastolic function” value ([4]; day 21) was “not significantly so”, the left ventricular dilatation ([4]; day 21) was “not significantly so” and the “congestive heart failure incidence” value ([5]; lifetime cumulative doxorubicin exposure limited to 400-450 mg/m^2) was “less than 58”. The “incidence of congestive heart failure” value ([5]; patients received doxorubicin at 400 mg/m^2) was 4.78, the “incidence of congestive heart failure” value ([5]; patients received doxorubicin at 550 mg/m^2) was 26% and the “incidence of congestive heart failure” value ([5]; patients received doxorubicin at 700 mg/m^2) was 48%. For the same compound, the “plasma CK-MB” value ([6]; day 21) was “significant increase” and the plasma triglyceride levels ([6]; day 21 and day 42) was “significantly elevated”.
For Cc1c(-c2ccc(-c3ccccc3F)cc2)nc2ccc(F)cc2c1C(=O)O [brequinar], the “increased loss of viability of MCF7 cells cultured with doxorubicin” value (MCF7 breast cancer cells) was “neither brequinar nor FB23/2, at concentrations of up to 10 μM, resulted in any increased loss of viability”, the “increased loss of viability of H929 cells cultured with doxorubicin” value [2] was “neither brequinar nor FB23/2, at concentrations of up to 10 μM, resulted in any increased loss of viability” and the “mitigation of toxicity of carfilzomib towards primary HCMs” value [3] was “did not mitigate the toxicity”. For the same compound, the “mitigation of toxicity of doxorubicin towards primary HCMs” value [3] was “did not mitigate the toxicity”.
